US20230158015A1, “DRUG COMBINATIONS FOR INHIBITING INFLAMMATION AND SRC KINASE ACTIVATION FOLLOWING INVASIVE SURGICAL PROCEDURES” (SINTETICA S.A., priority 2020, published 2023)
Where two headings read alike, the source gives them in different places.

Columns and labels:
[1] = tested on: immune cells in lungs and spleen of LPS-challenged mice; assay: LPS-induced inflammation model, IHC staining of immune cells in lungs and spleen; assay type: in vivo, mouse; conditions: lungs and spleen sections
Procedure: (§1) C57BL/6J mice (6-8 weeks) were purchased from Charles River Laboratories (USA) and acclimatized for at least 1 week before use. All mice were housed in a pathogen-free facility. The mice received LPS for 24 hours. Following 24 hours, mice were treated either with lidocaine alone or methylnaltrexone alone or a combination of both, as shown in Table 1.
At the conclusion of the study, the blood and tissue samples were collected for further study. The serum was used to determine pro-inflammatory cytokines using the LEGENDplex™ mouse inflammation panel (BioLegend, USA) kit followed by flow cytometry. The lungs and spleen tissue samples were used for hematoxylin and eosin (H&E) staining and immunohistochemical analyses for immune cells, including macrophages and natural killer (NK) cells, B cells, T cells, and its subsets. For histopathology and immunohistochemistry (IHC), tissue samples were prepared by cutting 4-µm sections from the paraffin blocks. IHC staining was performed by methods described earlier. The images were captured using bright field microscopy (Nikon Microscope). Two independent investigators evaluated the H&E and all immunohistochemical staining. For slide scoring, each investigator assessed the tissues and gave a score of 0 (no expression) to 4+ (strong uniform expression) as described previously. […]

[2] = tested on: LPS-challenged C57BL/6 mice; assay: LPS-induced inflammation model, H&E histopathology of lungs and spleen; assay type: in vivo, mouse
Procedure: as §1
(§2) At the conclusion of the study, the blood and tissue samples were collected for further study. The serum was used to determine pro-inflammatory cytokines using the LEGENDplex™ mouse inflammation panel (BioLegend, USA) kit followed by flow cytometry. The lungs and spleen tissue samples were used for hematoxylin and eosin (H&E) staining and immunohistochemical analyses for immune cells, including macrophages and natural killer (NK) cells, B cells, T cells, and its subsets. For histopathology and immunohistochemistry (IHC), tissue samples were prepared by cutting 4-µm sections from the paraffin blocks. IHC staining was performed by methods described earlier. The images were captured using bright field microscopy (Nikon Microscope). Two independent investigators evaluated the H&E and all immunohistochemical staining. For slide scoring, each investigator assessed the tissues and gave a score of 0 (no expression) to 4+ (strong uniform expression) as described previously. The data were expressed either as the mean ± SD or mean ± SEM by using Graph Pad Prism software.

p-Src / total Src [3] = assay: Total Src and p-Src expression in AsPc 1 human pancreatic cancer cell line (Western blot); assay type: cell-based
Procedure: (§3) Example 10 evaluated the effect of 10 µM lidocaine (L), 100 nM methylnaltrexone (M) and the combination of 10 µM lidocaine + 100 nM methylnaltrexone (L+M) for 1 hour on total Src and p-Src expression in a human pancreatic cancer cell line (AsPc 1).
(§4) • P-Src-Tyr416 (GeneTex # GTX81151) 1:2000 in 5% bovine serum albumin, at room temperature, 4 hours • Total Src (CST # 2108S) 1:3000 in 5% bovine serum albumin, at room temperature, 4 hours

p-Src / total Src [4] = assay: Total Src and p-Src expression in Panc1 human pancreatic cancer cell line (Western blot); assay type: cell-based; conditions: 10 µM lidocaine, 100 nM methylnaltrexone or both, time points up to 6 hours, fresh media
Procedure: as §4
Example 12 evaluated the effect of 10 µM lidocaine (L), 100 nM methylnaltrexone (M) and the combination of 10 µM lidocaine + 100 nM methylnaltrexone (L+M) on total Src and p-Src expression in a human pancreatic cancer cell line (Panc1) at multiple time points up to 6 hours, in fresh media. Experimental conditions were identical to Example 10.

[5] = tested on: human pulmonary microvascular endothelial cell; conditions: with 5-FU and bevacizumab; cited from earlier work
[6] = tested on: patients with advanced disease and cancer; conditions: regular clinical doses; cited from earlier work
p-Src / total Src [7] = assay type: cell-based, mouse
Procedure: On day 1, mouse KPC-105 cells were cultured until 300,000 cells per well in a 6 well plate were obtained. On day 2, the cells were treated with 0, 0.5, 1,5, 10, 15, 30, 50 and 100 µM lidocaine for 30 minutes. Plates were then collected and washed with phosphate buffered saline and stored at -80° C. Cells were subsequently lysed with 100 µl of radioimmunoprecipitation assay buffer with protease and phosphatase buffers.
(§5) Protein estimation was done using a Bradford assay under the following conditions: • A Western Blot was stripped with 6 M guanidine hydrochloride after p-Src protein blocking to probe with total Src protein. • 10% SDS-PAGE 10 well Blocking: 5% bovine serum albumin for p-Src blot. • P-Src-Tyr416 (GeneTex GTX81151) Rb: 1:1000 in 5% bovine serum albumin, Overnight. • Total Src (Cell Signaling Technology 2108S ) Rb mAb 1:1000 overnight in 5% milk. • GAPDH (Invitrogen# AM4300) : 1:5000 in 5% milk overnight. • Wash: 4x for 5 minutes each with 1x TBST. • Developed using 50% femto for the p-Src protein and homemade ECL substrate for total Src and GAPDH protein.
Example 4 evaluated endogenous Src and p-Src in 10 µM lidocaine treated mouse KPC-105 cells at different time points.
Example 5 evaluated endogenous Src and p-Src in mouse KPC-105 cells treated with 10 10 µM lidocaine for different time points, and increasing doses of methylnaltrexone after one hour of incubation. Western Blot banding patterns were generated using 15 µg /lane (NP40 lysates) 10% SDS PAGE over a 6-hour duration (lidocaine) and a 1-hour duration (methylnaltrexone).
• P-Src-Tyr416 (GeneTex # GTX81151) Rb: 1:1000 in 5% bovine serum albumin o/n at 4° C. • 10 µg /lane (NP40 lysates) 10% SDS PAGE • Total Src (CST # 2108S ) Rb mAb 1:1000 in 5% bovine serum albumin o/n at 4° C.
• P-Src-Tyr416 (GeneTex # GTX81151) Rb: 1:1000 in 5% bovine serum albumin 3 hours at room temperature • 10 µg /lane (NP40 lysates) 10% SDS PAGE • Total Src (CST # 2108S ) Rb mAb 1:1000 in 5% bovine serum albumin 3 hours at room temperature
• P-Src-Tyr416 (GeneTex # GTX81151) 1:2000 in 5% bovine serum albumin, o/n at 4° C. • Total Src (CST # 2108S ) 1:3000 in 5% bovine serum albumin, o/n at 4° C. • Vinculin (ProteinTech) 1:4000 in 5% milk o/n at 4° C.
• P-Src-Tyr416 (GeneTex # GTX81151) 1:2000 in 5% bovine serum albumin, o/n at 4C • Total Src (CST # 2108S ) 1:3000 in 5% bovine serum albumin, o/n at 4C

[8] = tested on: LPS-induced serum inflammatory cytokines; assay: LPS-induced inflammation model, serum inflammatory cytokines (LEGENDplex, flow cytometry); assay type: in vivo, mouse; conditions: serum of treated mice
Procedure: as §1, §2
Gram-negative bacterial infections are the main cause of acute lung injury, and LPS, which is the main component of the Gram-negative bacteria cell wall, is the major stimulus for the release of inflammatory mediators. Therefore, we measured the effect of lidocaine alone, methylnaltrexone alone, or a combination of lidocaine and methylnaltrexone on LPS-induced serum inflammatory cytokines profiles. Mouse inflammatory cytokines were measured in serum of control and LPS-challenged mice treated with drugs as described in Table 1, using the LEGENDplex™ mouse inflammation panel (BioLegend, USA) kit followed by flow cytometry as per manufacturer’s specifications. […] However, serum tumor necrosis factor-alpha (TNF-α), monocyte chemoattractant protein 1 (MCP- 1), interleukin 10 (IL-10), interleukin 6 (IL-6), and interleukin 17A (IL-17A) levels were found decreased in mice challenged with LPS and treated with lidocaine and methylnaltrexone together (FIGS. 14C-G). IL-1, IL-6, IL-17A, MCP-1, and TNFα are pro- inflammatory cytokines associated with inflammatory signaling. Taken together, these findings indicate that combined treatment of lidocaine and methylnaltrexone has the potential to suppress inflammatory signaling.

[9] = tested on: receptor protein tyrosine phosphatase; conditions: human endothelial cells, independent of µ-opioid receptor expression; cited from earlier work
p-Src / total Src [10] = assay: Total Src and p-Src expression in MiaPaCa 2 human pancreatic cancer cell line (Western blot); assay type: cell-based; conditions: 10 µM lidocaine, 100 nM methylnaltrexone or both, one hour
Procedure: as §4
as §3, with “Example 11” for “Example 10”, “line (MiaPaCa 2). Experimental conditions were identical to Example 10.” for “line (AsPc 1).”

Src protein [11] = assay: p-Src activation in TNF-α treated human pancreatic cancer cell line (Western blot); assay type: cell-based; conditions: TNF-α 20 ng/ml
Procedure: (§6) On day 1, KPC-105 mouse and human pancreatic cancer cell lines were cultured until 300,000 cells per well in a 6 well plate were obtained. On day 2, each cell line was treated with 20 ng/ml or mouse or human TNF-α for 2-hours. Cells were then collected and washed with phosphate buffered saline and stored at -80° C. Cells were then lysed with 100 µl of radioimmunoprecipitation assay buffer with protease and phosphatase buffers.
as §5, with “estimation was then performed using a” for “estimation was done using a”, “10% SDS-PAGE with 15 well Blocking:” for “10% SDS-PAGE 10 well Blocking:”, “for p-Src blot P-Src-Tyr416 (GeneTex” for “for p-Src blot. • P-Src-Tyr416 (GeneTex”, “overnight in 5 % milk. •” for “overnight in 5% milk. •”, “homemade ECL for total” for “homemade ECL substrate for total”

Src protein [12] = assay: p-Src activation in TNF-α treated KPC-105 mouse cell line (Western blot); assay type: cell-based; conditions: TNF-α 20 ng/ml
Procedure: as §6
as §5, with “estimation was then performed using a” for “estimation was done using a”, “10% SDS-PAGE with 15 well Blocking:” for “10% SDS-PAGE 10 well Blocking:”, “for p-Src blot P-Src-Tyr416 (GeneTex” for “for p-Src blot. • P-Src-Tyr416 (GeneTex”, “overnight in 5 % milk. •” for “overnight in 5% milk. •”, “homemade ECL for total” for “homemade ECL substrate for total”

[13] = Example 8, 10 µM lidocaine, 100 nM methylnaltrexone or both, different time points

Compound | F4/80 positive area (macrophages) [1] | H&E staining, histopathology of lungs ([2]; LPS challenged mice, lungs) | histological examination of spleen ([2]; LPS challenged mice, spleen) | LPS-induced inflammation (overall conclusion) ([2]; mouse model, drug alone) | Src after Src normalization (p-Src / total Src [3]; 100 nM methylnaltrexone exposure, preliminary results) | p-Src activity (p-Src / total Src [3]; 10 µM lidocaine, 100 nM methylnaltrexone or both, one hour) | p-Src (p-Src / total Src [4]) | inhibition of VEGF-induced cell proliferation and migration [5] | overall survival [6] | total Src (p-Src / total Src [7]; Example 5, 10 µM lidocaine over 6 hours, increasing doses of methylnaltrexone, 1 hour) | concentrations attenuating Src phosphorylation (p-Src / total Src [7]; Example 5, 1 hour incubation) | phosphorylation of Src (p-Src / total Src [7]; Example 6, 100 nM methylnaltrexone, different time points) | phosphorylation of Src (p-Src / total Src [7]; [13]) | total Src (p-Src / total Src [7]; [13]) | serum interferon-gamma (IFNγ) level [8] | serum interleukin 1 alpha (IL-1α) level [8] | receptor protein tyrosine phosphatase activity [9] | p-Src (p-Src / total Src [10]) | time of maximum activation of Src protein (Src protein [11]) [min] | time of maximum activation of Src protein (Src protein [12]) [min]
C[N@+]1(CC2CC2)CC[C@]23c4c5ccc(O)c4O[C@H]2C(=O)CC[C@@]3(O)[C@H]1C5 [methylnaltrexone] | partially decreased | perivascular edema and accumulation of mixed cell infiltration within blood, and lymphatic vessels | increased number of erythrocytes in the red pulp, along with mild edema | partially mitigate | no increase in Src | attenuated p-Src activity | initially decreased p-Src at 30 minutes and 1 hour | synergistic effect | increased overall survival | not affected | above 50 nM | attenuates phosphorylation of Src in KPC-105 cells starting at 2 hours | attenuated phosphorylation of Src after 1 hour of exposure | decreased total Src after 1 hour of exposure | insignificant changes | insignificant changes | increased | attenuated p-Src | – | –
O=C1CC[C@@]2(O)[C@H]3Cc4ccc(O)c5c4[C@@]2(CCN3CC2CC2)[C@H]1O5 [naltrexone] | – | – | – | – | – | – | – | – | – | – | – | – | – | – | – | – | not | – | – | –
TNF-α | – | – | – | – | – | – | – | – | – | – | – | – | – | – | – | – | – | – | 45 | 45
